{
  "source": "patent US6548045B2",
  "about": "“Nitroimidazole substituted porphyrin complex” (Photochemical Co., Ltd., priority 1999, dated 2003)",
  "origin": "cited, not measured here",
  "key": {"anoxic tissues in tumor [1]": {"system": "anoxic tissues in tumor", "conditions": "animal experiment implanting tumor"}, "anoxic tissues in tumor [2]": {"system": "anoxic tissues in tumor", "conditions": "in vivo"}, "[3]": {"conditions": "in vivo"}},
  "data": [
    {"smiles": "COCC(O)Cn1ccnc1[N+](=O)[O-]", "note": "(stereo not drawn) [Misonidazole]", "values": [
      {"measurement": "efficacy compared with absence of the compound", "setting": "anoxic tissues in tumor [1]", "result": "twice times more efficacies"},
      {"measurement": "efficacy in the human being", "setting": "anoxic tissues in tumor [2]", "result": "no efficacy is observed"},
      {"measurement": "neurotoxicity", "setting": "[3]", "result": "high neurotoxin"}
    ]}
  ]
}
